Measurements as given in PMC10208956, “Microbial peptides activate tumour-infiltrating lymphocytes in glioblastoma” (Nature, 2023).

Legend:
Format in all cases: cell-based, human
[1] = system: isolated TIL-derived CD4+ TCCs; assay: All isolated TCCs tested against SIN3A* peptide: proliferation (SI); details: for SI: proliferation, sheet 2b
TCC8F7 = assay: Proliferation of TCC8F7, 3H-thymidine (SI), 3 days; details: irradiated autologous PBMCs as APCs, Extended Data Fig. 5d
[2] = system: sorted CD4+ PE and FITC TCRVβ+ TILs; assay: Proliferation of TCRBV-sorted CD4+ TILs (without TCRBV6.1 and TCRBV6.2); details: sheet 6b
Source text: TILs expressing specific TCRBVs were isolated from bulk TILs using a panel of 22 fluorescently labelled TCRBV antibodies that detect 27 different TCRBVs. Twelve TCRBV antibodies were labelled with PE and 10 with FITC (Beckman Coulter). […] After another wash, cells were stained with CD4 (1:100) (APC anti-human CD4, eBioscience), CD8 (1:100) (Pacific blue anti-human CD8, BioLegend), TCRBV-PE (1:25) (Beckman Coulter) and TCRBV-FITC (1:25) (Beckman Coulter) antibodies (Supplementary Table 12) for 30 min. Finally, cells were sorted, seeded at 5 × 10^4 cells per well in T cell medium without h-IL-2 and rested for 1 day before stimulation with 2 × 10^5 cells per well of irradiated autologous PBMCs (45 Gy) and peptide (10 µM).
Two populations of CD4^+ PE-TCRVβ^+ and CD4^+ FITC-TCRVβ^+ were sorted and later mixed together. […] Specific amount of each cytokine/chemokine (pg/ml) was calculated by subtracting the cytokines in the negative control cultures (no peptide control). Source data

Ac-QPVEFNHAIHYVN-NH2 [SIN3A*]
SI ([1]; TCC4): 326.128
SI ([1]; TCC11): 238.815
SI ([1]; TCC12): 287.573
SI ([1]; TCC13): 453.401
SI ([1]; TCC15): 28.5845
SI ([1]; TCC16): 23.5776
SI ([1]; TCC20): 244.524
SI ([1]; TCC29): 34.8583
SI ([1]; TCC31): 128.595
SI ([1]; TCC32): 5.805
SI ([1]; TCC33): 313.375
SI ([1]; TCC35): 7.243
SI ([1]; TCC37): 2.779
SI ([1]; TCC38): 611.635
SI ([1]; TCC43): 28.9619
SI ([1]; TCC47): 29.6013
SI ([1]; TCC52): 25.0598
SI ([1]; TCC56): 22.816
SI ([1]; TCC57): 3.669
SI ([1]; TCC60): 23.5877
SI ([1]; TCC63): 17.3519
SI ([1]; TCC67): 7.121
SI ([1]; TCC68): 7.155
SI ([1]; TCC72): 5.137
SI ([1]; TCC75): 11.5536
SI ([1]; TCC76): 2.574
SI ([1]; TCC88): 34.5634
SI ([1]; TCC89): 2.064
SI ([1]; TCC90): 56.5299
SI ([1]; TCC91): 28.9154
SI ([1]; TCC92): 23.8373
SI ([1]; TCC93): 31.4988
SI ([1]; TCC94): 41.408
SI ([1]; TCC96): 17.6927
SI ([1]; TCC97): 56.4388
SI ([1]; TCC98): 67.9438
SI ([1]; TCC99): 7.081
SI ([1]; TCC101): 5.504
SI ([1]; TCC102): 3.298
SI ([1]; TCC103): 23.6756
SI ([1]; TCC104): 20.3791
SI ([1]; TCC107): 14.7872
SI ([1]; TCC109): 67.7177
SI ([1]; TCC110): 38.4196
SI ([1]; TCC111): 16.0477
SI ([1]; TCC112): 3.861
SI ([1]; TCC113): 9.948
SI ([1]; TCC114): 19.6549
SI ([1]; TCC115): 9.682
SI ([1]; TCC116): 36.7042
SI ([1]; TCC118): 2.382
SI ([1]; TCC120): 8.436
SI ([1]; TCC121): 46.4714
SI ([1]; TCC124): 44.5013
SI ([1]; TCC126): 30.498
SI ([1]; TCC127): 40.4213
SI ([1]; TCC128): 20.9837
SI ([1]; TCC129): 2.6751
SI ([1]; TCC130): 24.2362
SI ([1]; TCC132): 2.2794
SI ([1]; TCC133): 8.094
SI ([1]; TCC134): 2.175
SI ([1]; TCC135): 13.0838
SI ([1]; TCC137): 37.685
SI ([1]; TCC138): 0.96
CD4+ TCCs that responded by proliferation or production of IFNγ ([1]; TCCs isolated from SIN3A*-stimulated TILs, 3 days, Fig. 2b): 70 out of 124
response of TCC8F7 (in words) (TCC8F7): strongly responds
Proliferation (SI) of sorted CD4+ TILs ([2]; replicate 1): 9.2018
Proliferation (SI) of sorted CD4+ TILs ([2]; replicate 2): 10.7366
Proliferation (SI) of sorted CD4+ TILs ([2]; replicate 3): 6.162
